Numbered stars: 1 amine (or outer) side, 2 acyl side, 3 side chain; on linkers, the order of the positions; unused ones are H or OH. Square brackets hold non-standard residues; d marks the D form. Side chains are listed from the residue outwards. Peptide text beside a SMILES is read from it. * marks the point of attachment. C20 diacid = O=C(O)CCCCCCCCCCCCCCCCCCC(=O)*; C18 diacid = O=C(O)CCCCCCCCCCCCCCCCC(=O)*; αMePhe(2-F) = C[C@](N)(Cc1ccccc1F)C(=O)O; γGlu = O=C(O)[C@H](CCC(=O)[*:2])N[*:1]; αMeY = C[C@](N)(Cc1ccc(O)cc1)C(=O)O; αMeL = CC(C)C[C@](C)(N)C(=O)O; Orn = NCCC[C@H](N)C(=O)O; AEEA = NCCOCCOCC(=O)O; Aib = CC(C)(N)C(=O)O
Experiments:
[1] = molecular target: T1, human Gcg receptor (Homo sapiens, UniProt P47871); test: [125I]-Glucagon binding (SPA), human Gcg receptor; settings: read-out: hGLcgR Ki, nM (SEM, n)
T1 construct: expressed in transfected cells; crude membranes
Outline: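 Scintillation counts are taken after membranes and WGA beads incubate and settle for 12 hours at room temperature. Buffer is 25 mM HEPES, pH 7.4, with CaCl2, MgCl2, bacitracin and Tween-20. Ki values, from four-parameter IC50 fits, are geometric means over independent days.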

[2] = molecular target: T2, human GIP receptor (Homo sapiens, UniProt P48546); test: [125I]-GIP binding (SPA), human GIP receptor; settings: read-out: hGIPR Ki, nM (SEM, n)
T2 construct: expressed in transfected cells; crude membranes
T2 sequence (P48546 22-466): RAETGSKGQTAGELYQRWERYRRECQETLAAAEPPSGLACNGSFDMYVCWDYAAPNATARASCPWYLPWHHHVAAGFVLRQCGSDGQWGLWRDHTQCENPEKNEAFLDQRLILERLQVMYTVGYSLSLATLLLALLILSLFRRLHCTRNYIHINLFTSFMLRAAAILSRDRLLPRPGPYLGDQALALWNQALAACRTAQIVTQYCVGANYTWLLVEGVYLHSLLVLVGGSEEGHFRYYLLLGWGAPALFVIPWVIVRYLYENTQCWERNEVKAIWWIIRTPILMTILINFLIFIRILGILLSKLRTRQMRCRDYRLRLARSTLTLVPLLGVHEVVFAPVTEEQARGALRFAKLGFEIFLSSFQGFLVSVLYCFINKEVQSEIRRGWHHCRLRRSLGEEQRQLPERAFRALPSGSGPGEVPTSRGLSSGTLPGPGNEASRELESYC

[3] = molecular target: human GLP-1 receptor (GLP-1R) (Homo sapiens, UniProt P43220); test: cAMP pharmacological functional assay in presence of casein, hGLP-1R; assay type: cell-based; settings: HEK293 cells expressing hGLP-1R, 0.1% Casein, geometric mean; read-out: hGLP1R cAMP Rel EC50 nM (SEM, n)
[4] = molecular target: T3, gastric inhibitory peptide receptor (GIPR) (Homo sapiens, UniProt P48546); test: cAMP pharmacological functional assay in presence of casein, hGIPR; assay type: cell-based; settings: HEK293 cells expressing hGIPR, 0.1% Casein, geometric mean; read-out: hGIPR cAMP Rel EC50 nM (SEM, n)
T3 sequence (P48546 22-466): T2 sequence (P48546 22-466)

[5] = molecular target: human GLP-1R (Homo sapiens, UniProt P43220); test: [125I]-GLP-1 binding (SPA), human GLP-1 receptor; parameters: expressed in transfected cells; crude membranes; settings: read-out: hGLP1R Ki, (nM) (SEM, n)
Outline: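 Assay buffer: HEPES 25 mM, pH 7.4, CaCl2 2.5 mM, MgCl2 1 mM, with EDTA-free protease inhibitors. Receptor came from crude cell membranes prepared by homogenization and centrifugation at 4° C. IC50s came from four-parameter fits (maximum, minimum, IC50, Hill slope) and were expressed as Ki geometric means with SEM.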

Chain of human GLP-1R (P43220 24-463): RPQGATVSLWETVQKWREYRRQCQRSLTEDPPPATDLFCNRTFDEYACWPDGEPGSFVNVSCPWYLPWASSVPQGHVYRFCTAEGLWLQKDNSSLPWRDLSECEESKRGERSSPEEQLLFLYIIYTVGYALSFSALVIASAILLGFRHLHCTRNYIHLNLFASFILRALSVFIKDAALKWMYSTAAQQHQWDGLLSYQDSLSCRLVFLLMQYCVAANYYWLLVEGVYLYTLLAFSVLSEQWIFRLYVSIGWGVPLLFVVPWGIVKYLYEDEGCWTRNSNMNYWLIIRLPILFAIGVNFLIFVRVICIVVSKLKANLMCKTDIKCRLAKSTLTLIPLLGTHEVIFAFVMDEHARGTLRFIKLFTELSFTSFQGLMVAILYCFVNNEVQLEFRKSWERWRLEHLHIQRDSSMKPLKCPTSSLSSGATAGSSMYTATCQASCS
Chain of human GLP-1 receptor (GLP-1R) (P43220 24-463): as above
T1 sequence (P47871 26-477): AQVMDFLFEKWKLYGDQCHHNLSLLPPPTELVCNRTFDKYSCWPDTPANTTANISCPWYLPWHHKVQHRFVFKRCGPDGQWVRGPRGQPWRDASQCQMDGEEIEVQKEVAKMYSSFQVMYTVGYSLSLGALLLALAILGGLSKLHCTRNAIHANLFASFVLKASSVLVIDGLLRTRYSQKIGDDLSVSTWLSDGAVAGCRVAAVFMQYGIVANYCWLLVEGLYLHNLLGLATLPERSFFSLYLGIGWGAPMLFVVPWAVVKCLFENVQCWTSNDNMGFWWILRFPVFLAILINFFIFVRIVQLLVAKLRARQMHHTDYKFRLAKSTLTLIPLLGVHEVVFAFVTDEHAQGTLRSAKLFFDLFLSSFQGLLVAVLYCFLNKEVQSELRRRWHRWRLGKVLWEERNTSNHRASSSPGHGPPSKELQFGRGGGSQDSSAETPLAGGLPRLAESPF

CC[C@H](C)[C@H](NC(=O)[C@H](CC(C)C)NC(=O)[C@H](Cc1ccc(O)cc1)NC(=O)[C@@H](NC(=O)[C@@H](NC(=O)[C@H](Cc1ccccc1)NC(=O)[C@H](CCC(=O)O)NC(=O)C(C)(C)NC(=O)[C@H](CCC(N)=O)NC(=O)[C@H](C)NC(=O)[C@H](CCCCNC(=O)COCCOCCNC(=O)COCCOCCNC(=O)CC[C@H](NC(=O)CCCCCCCCCCCCCCCCCCC(=O)O)C(=O)O)NC(=O)[C@H](CCC(=O)O)NC(=O)[C@H](CC(=O)O)NC(=O)[C@H](CC(C)C)NC(=O)[C@](C)(CC(C)C)NC(=O)[C@@H](NC(=O)[C@H](CO)NC(=O)[C@H](Cc1ccc(O)cc1)NC(=O)[C@H](CC(=O)O)NC(=O)[C@H](CO)NC(=O)[C@@H](NC(=O)[C@](C)(Cc1ccccc1F)NC(=O)[C@@H](NC(=O)CNC(=O)[C@H](CCC(=O)O)NC(=O)C(C)(C)NC(=O)[C@@H](N)Cc1ccc(O)cc1)[C@@H](C)O)[C@@H](C)O)[C@@H](C)CC)[C@@H](C)CC)C(C)C)C(=O)N[C@@H](CCC(=O)O)C(=O)NCC(=O)NCC(=O)N1CCC[C@H]1C(=O)N[C@@H](CO)C(=O)N[C@@H](CO)C(=O)NCC(=O)N[C@@H](C)C(=O)N1CCC[C@H]1C(=O)N1CCC[C@H]1C(=O)N1CCC[C@H]1C(=O)N[C@@H](CO)C(N)=O [Example 149] (H-Y[Aib]EGT[αMePhe(2-F)]TSDYSI[αMeL]LDEK([AEEA-AEEA-γGlu-C20 diacid])AQ[Aib]EFIVYLIEGGPSSGAPPPS-NH2)
Ki [1]: 127 nM | Ki [2]: 0.0708 nM | EC50 [3]: 0.0916 nM | EC50 [4]: 0.0711 nM | Ki [5]: 26.1 nM

CC[C@H](C)[C@H](NC(=O)[C@H](CC(C)C)NC(=O)[C@H](Cc1ccc(O)cc1)NC(=O)[C@H](Cc1c[nH]cn1)NC(=O)[C@@H](NC(=O)[C@H](Cc1ccccc1)NC(=O)[C@H](CCC(=O)O)NC(=O)C(C)(C)NC(=O)[C@H](CCC(N)=O)NC(=O)[C@H](C)NC(=O)[C@H](CCCCNC(=O)COCCOCCNC(=O)COCCOCCNC(=O)CC[C@H](NC(=O)CCCCCCCCCCCCCCCCCCC(=O)O)C(=O)O)NC(=O)[C@H](CCC(=O)O)NC(=O)[C@H](CC(=O)O)NC(=O)[C@H](CC(C)C)NC(=O)[C@](C)(CC(C)C)NC(=O)[C@@H](NC(=O)[C@H](CO)NC(=O)[C@H](Cc1ccc(O)cc1)NC(=O)[C@H](CC(=O)O)NC(=O)[C@H](CO)NC(=O)[C@@H](NC(=O)[C@](C)(Cc1ccccc1F)NC(=O)[C@@H](NC(=O)CNC(=O)[C@H](CCC(=O)O)NC(=O)C(C)(C)NC(=O)[C@@H](N)Cc1ccc(O)cc1)[C@@H](C)O)[C@@H](C)O)[C@@H](C)CC)[C@@H](C)CC)C(=O)N[C@@H](CCC(=O)O)C(=O)NCC(=O)NCC(=O)N1CCC[C@H]1C(=O)N[C@@H](CO)C(=O)N[C@@H](CO)C(=O)NCC(=O)N[C@@H](C)C(=O)N1CCC[C@H]1C(=O)N1CCC[C@H]1C(=O)N1CCC[C@H]1C(=O)N[C@@H](CO)C(N)=O [Example 153] (H-Y[Aib]EGT[αMePhe(2-F)]TSDYSI[αMeL]LDEK([AEEA-AEEA-γGlu-C20 diacid])AQ[Aib]EFIHYLIEGGPSSGAPPPS-NH2; N-terminus assumed)
Ki [1]: 43.8 nM | Ki [2]: 0.0578 nM | EC50 [3]: 0.0904 nM | EC50 [4]: 0.0634 nM | Ki [5]: 22.2 nM

CC[C@H](C)[C@H](NC(=O)[C@H](CCCCN)NC(=O)[C@H](CC(=O)O)NC(=O)[C@H](CC(C)C)NC(=O)[C@H](CC(C)C)NC(=O)[C@@H](NC(=O)[C@H](CO)NC(=O)[C@H](Cc1ccc(O)cc1)NC(=O)[C@H](CC(=O)O)NC(=O)[C@H](CO)NC(=O)[C@@H](NC(=O)[C@H](Cc1ccccc1)NC(=O)[C@@H](NC(=O)CNC(=O)[C@H](CCC(=O)O)NC(=O)C(C)(C)NC(=O)[C@@H](N)Cc1ccc(O)cc1)[C@@H](C)O)[C@@H](C)O)[C@@H](C)CC)C(=O)N[C@@H](C)C(=O)N[C@@H](CCC(N)=O)C(=O)N[C@@H](CCCCNC(=O)COCCOCCNC(=O)COCCOCCNC(=O)CC[C@H](NC(=O)CCCCCCCCCCCCCCCCCCC(=O)O)C(=O)O)C(=O)N[C@@H](C)C(=O)N[C@@H](Cc1ccccc1)C(=O)N[C@H](C(=O)N[C@@H](CCC(=O)O)C(=O)N[C@@H](Cc1ccc(O)cc1)C(=O)N[C@@H](CC(C)C)C(=O)N[C@H](C(=O)N[C@@H](CCC(=O)O)C(=O)NCC(=O)NCC(=O)N1CCC[C@H]1C(=O)N[C@@H](CO)C(=O)N[C@@H](CO)C(=O)NCC(=O)N[C@@H](C)C(=O)N1CCC[C@H]1C(=O)N1CCC[C@H]1C(=O)N1CCC[C@H]1C(=O)N[C@@H](CO)C(N)=O)[C@@H](C)CC)[C@@H](C)CC [Example 12] (H-Y[Aib]EGTFTSDYSILLDKIAQK([AEEA-AEEA-γGlu-C20 diacid])AFIEYLIEGGPSSGAPPPS-NH2; N-terminus assumed)
Ki [1]: 684 nM | Ki [2]: 0.167 nM | EC50 [3]: 1.15 nM | EC50 [4]: 0.3 nM | Ki [5]: 12.9 nM

CC[C@H](C)[C@H](NC(=O)[C@H](CC(C)C)NC(=O)[C@](C)(Cc1ccc(O)cc1)NC(=O)[C@@H](CCC(=O)O)NC(=O)[C@@H](NC(=O)[C@H](Cc1ccccc1)NC(=O)[C@@H](NC(=O)C(C)(C)NC(=O)[C@H](CCC(N)=O)NC(=O)[C@H](C)NC(=O)[C@H](CCCCNC(=O)COCCOCCNC(=O)COCCOCCNC(=O)CC[C@H](NC(=O)CCCCCCCCCCCCCCCCC(=O)O)C(=O)O)NC(=O)[C@H](CCCN)NC(=O)[C@H](CC(=O)O)NC(=O)[C@H](CC(C)C)NC(=O)[C@](C)(CC(C)C)NC(=O)[C@@H](NC(=O)[C@H](CO)NC(=O)[C@H](CC(C)C)NC(=O)[C@H](CC(=O)O)NC(=O)[C@H](CO)NC(=O)[C@@H](NC(=O)[C@](C)(Cc1ccccc1F)NC(=O)[C@@H](NC(=O)CNC(=O)[C@H](CCC(=O)O)NC(=O)C(C)(C)NC(=O)[C@@H](N)Cc1ccc(O)cc1)[C@@H](C)O)[C@@H](C)O)[C@@H](C)CC)[C@@H](C)O)[C@@H](C)CC)C(=O)N[C@@H](CCC(=O)O)C(=O)NCC(=O)NCC(=O)N1CCC[C@H]1C(=O)N[C@@H](CO)C(=O)N[C@@H](CO)C(=O)NCC(=O)N[C@@H](C)C(=O)N1CCC[C@H]1C(=O)N1CCC[C@H]1C(=O)N1CCC[C@H]1C(=O)N[C@@H](CO)C(N)=O [Example 243] (H-Y[Aib]EGT[αMePhe(2-F)]TSDLSI[αMeL]LD[Orn]K([AEEA-AEEA-γGlu-C18 diacid])AQ[Aib]TFI[dE][αMeY]LIEGGPSSGAPPPS-NH2)
Ki [1]: 145 nM | Ki [2]: 0.0325 nM | EC50 [3]: 0.0265 nM | EC50 [4]: 0.0214 nM | Ki [5]: 0.67 nM

CC[C@H](C)[C@H](NC(=O)[C@H](CC(C)C)NC(=O)[C@H](Cc1ccc(O)cc1)NC(=O)[C@H](CCC(=O)O)NC(=O)[C@@H](NC(=O)[C@H](Cc1ccccc1)NC(=O)[C@H](C)NC(=O)C(C)(C)NC(=O)[C@H](CCC(N)=O)NC(=O)[C@H](CCCCNC(=O)COCCOCCNC(=O)COCCOCCNC(=O)CC[C@H](NC(=O)CCCCCCCCCCCCCCCCCCC(=O)O)C(=O)O)NC(=O)[C@@H](NC(=O)[C@H](CCCCN)NC(=O)[C@H](CC(=O)O)NC(=O)[C@H](CC(C)C)NC(=O)[C@H](CC(C)C)NC(=O)[C@@H](NC(=O)[C@H](CO)NC(=O)[C@H](Cc1ccc(O)cc1)NC(=O)[C@H](CC(=O)O)NC(=O)[C@H](CO)NC(=O)[C@@H](NC(=O)[C@H](Cc1ccccc1)NC(=O)[C@@H](NC(=O)CNC(=O)[C@H](CCC(=O)O)NC(=O)C(C)(C)NC(=O)[C@@H](N)Cc1ccc(O)cc1)[C@@H](C)O)[C@@H](C)O)[C@@H](C)CC)[C@@H](C)CC)[C@@H](C)CC)C(=O)N[C@@H](CCC(=O)O)C(=O)NCC(=O)NCC(=O)N1CCC[C@H]1C(=O)N[C@@H](CO)C(=O)N[C@@H](CO)C(=O)NCC(=O)N[C@@H](C)C(=O)N1CCC[C@H]1C(=O)N1CCC[C@H]1C(=O)N1CCC[C@H]1C(=O)N[C@@H](CO)C(N)=O [Example 30] (H-Y[Aib]EGTFTSDYSILLDKIK([AEEA-AEEA-γGlu-C20 diacid])Q[Aib]AFIEYLIEGGPSSGAPPPS-NH2)
Ki [1]: 123 nM | Ki [2]: 0.151 nM | EC50 [3]: 1.84 nM | EC50 [4]: 0.114 nM | Ki [5]: 6.2 nM

Reference: patent US12252524B2, “GIP/GLP1 co-agonist compounds” (Eli Lilly and Company, priority 2018, dated 2025)
